Data: US5324648A, “Substituted isocoumarins as serine protease inhibitors and anti-inflammatory agents” (Georgia Tech Research Corporation, priority 1992, dated 1994)
Like-named read-outs stand apart in the source and are kept apart here.

What was measured:
[1] = biological target: recombinant human tissue plasminogen activator (Homo sapiens, UniProt P00750); experiment: Inactivation rate of recombinant human tissue plasminogen activator; type: biochemical; conditions: pH 7.5, 25° C, read-out: kobs/[I]
In short: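 Incubation method: enzyme mixed with inhibitor in Me2SO (8–12% v/v) in 0.1M Hepes, 0.5M NaCl, pH 7.5; aliquots withdrawn over time for residual activity with ZArg-SBzl (0.07 mM) plus 4,4'-dithiodipyridine (0.33 mM). kobs taken from ln(vt/vo) versus time plots.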

human factor XIIa = biological target: T1, human factor XIIa (Homo sapiens, UniProt P00748); experiment: Inactivation rate of human factor XIIa; type: biochemical; conditions: pH 7.5, 25° C, read-out: kobs/[I]
T1 construct: human factor XIIa
T1 sequence (P00748 373-615 limits assumed): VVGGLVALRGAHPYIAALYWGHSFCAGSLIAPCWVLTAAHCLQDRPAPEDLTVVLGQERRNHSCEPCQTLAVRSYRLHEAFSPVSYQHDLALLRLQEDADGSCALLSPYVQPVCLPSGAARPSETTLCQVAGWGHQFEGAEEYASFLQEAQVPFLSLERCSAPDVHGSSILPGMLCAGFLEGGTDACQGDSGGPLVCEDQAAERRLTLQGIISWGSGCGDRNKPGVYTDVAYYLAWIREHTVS
T1 sequence (P00748 20-372 partner limits assumed): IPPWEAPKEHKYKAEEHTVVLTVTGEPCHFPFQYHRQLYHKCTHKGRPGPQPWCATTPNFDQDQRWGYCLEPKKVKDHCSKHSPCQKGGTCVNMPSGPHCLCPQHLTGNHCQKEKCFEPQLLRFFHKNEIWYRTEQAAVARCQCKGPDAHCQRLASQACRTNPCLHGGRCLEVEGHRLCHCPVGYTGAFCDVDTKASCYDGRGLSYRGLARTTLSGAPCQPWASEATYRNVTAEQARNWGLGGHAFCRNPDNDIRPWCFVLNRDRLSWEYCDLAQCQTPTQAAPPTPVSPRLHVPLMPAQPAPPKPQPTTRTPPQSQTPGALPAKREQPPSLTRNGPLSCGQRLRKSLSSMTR
In short: (§1)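 Enzyme 0.01-2.3 μM, 0.1M Hepes/0.01M CaCl2 pH 7.5, 8-12% Me2SO, 25° C; inhibitor added, timed aliquots assayed for remaining activity; kobs = slope of ln(vt/vo) vs t.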

human plasmin = biological target: T2, human plasmin (Homo sapiens, UniProt P00747); experiment: Inactivation rate of human plasmin; type: biochemical; conditions: read-out: kobs/[I]
T2 construct: human plasmin; from tissue; host or cells: human plasma

[2] = test system: T3, human Q-31 tryptase (Homo sapiens); experiment: Inactivation rate of human Q-31 tryptase; type: biochemical; conditions: Table VII; pH 7.5, 25° C; [I] 3 to 500 μM; read-out: kobs/[I]
T3 construct: human cytotoxic lymphocyte Q31 tryptase; endogenous in cells; host or cells: human cytotoxic lymphocyte Q31
Experimental: (§2) Inactivation rates of serine proteases by substituted isocoumarins were measured by the incubation method. An aliquot of inhibitor (25 or 50 μl) in Me2 SO was added to a buffered enzyme solution (0.01-2.3 μM) to initiate the inactivation. Aliquots (50 μl) were withdrawn at various intervals and the residual enzymatic activity was measured. Me2 SO concentration in the reaction mixture was 8-12% (v/v). 0.1 Hepes, 0.01M CaCl2, pH 7.5 buffer was utilized for trypsin and coagulation enzymes. 0.1M Hepes, 0.5M NaCl, pH 7.5 was utilized for other serine proteases. The inhibitor concentrations are shown in all the tables. Peptide thioesters or peptide nitroanilides with appropriate sequence were used as substrates for various serine proteases. All peptide thioester hydrolysis rates were measured with assay mixtures containing 4,4'-dithiodipyridine (ε324 =19800M^-1 cm^-1; Grasetti & Murray, Arch. Biochem. Biophys. 119, pp 41-49 (1967)). Peptide 4-nitroanilide nitroanilide hydrolysis was measured at 410 nm (ε410 =8800M^-1 cm^-1; Erlanger et al., Arch. Biochem. Biophys. 95, pp 271-278 (1961)). First order inactivation rate constant (kobs) were obtained from plots of ln (vt /vo) vs time, and the correlation coefficients were greater than 0.98.
^a Inactivation rates were measured at 0.1M Hepes, 0.01M CaCl2,
pH 7.5, 8% Me2 SO and 25° C. by incubation method. ZArg-SBzl
(74-85 μM) was used as the substrate to monitor the residual enzymatic

[3] = biological target: T4, human leukocyte elastase (HLE) (Homo sapiens, UniProt P08246); experiment: Inactivation of human leukocyte elastase (HLE); type: biochemical
T4 construct: from tissue; host or cells: human leukocytes (from the name)
T4 sequence (P08246 30-267): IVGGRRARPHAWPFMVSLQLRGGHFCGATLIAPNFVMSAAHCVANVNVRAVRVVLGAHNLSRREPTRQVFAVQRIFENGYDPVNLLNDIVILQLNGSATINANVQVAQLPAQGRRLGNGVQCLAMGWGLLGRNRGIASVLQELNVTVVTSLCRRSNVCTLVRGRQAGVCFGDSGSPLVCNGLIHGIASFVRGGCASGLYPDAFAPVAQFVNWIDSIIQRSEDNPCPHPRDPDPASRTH
Experimental: Inactivation rates of serine proteases by substituted isocoumarins were measured by the incubation method. An aliquot of inhibitor (25 or 50 μl) in Me2 SO was added to a buffered enzyme solution (0.01-2.3 μM) to initiate the inactivation. Aliquots (50 μl) were withdrawn at various intervals and the residual enzymatic activity was measured. Me2 SO concentration in the reaction mixture was 8-12% (v/v). 0.1 Hepes, 0.01M CaCl2, pH 7.5 buffer was utilized for trypsin and coagulation enzymes. 0.1M Hepes, 0.5M NaCl, pH 7.5 was utilized for other serine proteases. […] Peptide thioesters or peptide nitroanilides with appropriate sequence were used as substrates for various serine proteases. All peptide thioester hydrolysis rates were measured with assay mixtures containing 4,4'-dithiodipyridine (ε324 =19800M^-1 cm^-1 ; Grasetti & Murray, Arch. Biochem. Biophys. 119, pp 41-49 (1967)). Peptide 4-nitroanilide nitroanilide hydrolysis was measured at 410 nm (ε410 =8800M^-1 cm^-1 ; Erlanger et al., Arch. Biochem. Biophys. 95, pp 271-278 (1961)). First order inactivation rate constant (kobs) were obtained from plots of ln (vt /vo) vs time, and the correlation coefficients were greater than 0.98.
^a Inactivation rates were measured at 0.1M Hepes, 0.5 NaCl, pH 7.5,
8-12% Me2 SO and 25° C. by incubation method.
^a Inhibition rates were measured in 0.1M Hepes, 0.05M NaCl, pH 7.5
buffer, 8-9% Me2 SO and at 25° C.
^a Inhibition constants were in 0.1M Hepes, 0.5M NaCl, pH 7.5 buffer,
8-9% Me2 SO and at 25° C.
^a Inhibition rates were measured in 0.1M Hepes, 0.5M NaCl, 2.5%
Me2 SO, pH 7,5 and at 25° C.
^a Inhibition was measured in 0.1M Hepes, 0.5M NaCl, pH 7.5 buffer,
5-10% Me2 SO and at 25° C. Suc--Val--Pro--Phe--NA (0.48 mM)
was used as the substrate for chymotrypsin and cat G.
^a Inhibition rates were measured in 0.1M Hepes, 0.5M NaCl, pH 7.5

[4] = Activated partial thromboplastin time (APTT), human plasma
[5] = Prothrombin time (PT), human plasma
bovine trypsin = biological target: T5, bovine trypsin (Bos taurus, UniProt P00760); experiment: Inactivation rate of bovine trypsin; type: biochemical; conditions: read-out: kobs/[I]
T5 sequence (P00760 24-246): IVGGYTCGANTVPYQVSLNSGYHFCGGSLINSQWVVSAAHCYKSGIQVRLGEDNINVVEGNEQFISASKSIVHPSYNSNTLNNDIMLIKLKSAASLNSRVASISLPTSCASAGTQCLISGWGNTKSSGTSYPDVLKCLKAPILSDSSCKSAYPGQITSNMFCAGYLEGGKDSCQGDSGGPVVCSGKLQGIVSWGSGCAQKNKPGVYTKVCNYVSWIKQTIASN
In short: as §1

human plasma kallikrein = biological target: T6, human plasma kallikrein (Homo sapiens, UniProt P03952); experiment: Inactivation rate of human plasma kallikrein; type: biochemical; conditions: Table I, read-out: kobs/[I]
T6 construct: human plasma kallikrein; from tissue; host or cells: human plasma (from the name)
Experimental: as §2
^a Conditions were as 0.1M Hepes, 0.01M CaCl2, pH 7.5 and 8-12%
Me2 SO and 25° C. Rate constants were measured by incubation
method unless otherwise noted. An aliquot of inhibitor was added to an
enzyme solution and aliquots removed with time and assayed for remaining
enzymatic activity. Firstorder rate constants, kobs were obtained
from the plots of ln(vt /vo) versus time.

[6] = pH 7.5, Table VI, [I] 7 to 44 μM
[7] = Table VI, pH 7.5, 25° C, [I] 4 to 330 μM
[8] = Table IV, pH 7.5, 25° C, [I] 0.001 to 0.18 mM, read-out: kobs/[I]
[9] = pH 7.5, Table I, same concentration of enzyme and inhibitor
[10] = pH 7.5, based on residual activity at 0.2 min
[11] = pH 7.5, Table IX, [I] 3.5-5.0 μM
[12] = pH 7.5, Table I, progress curve method
[13] = pH 7.5, 25° C, [I] 3 to 330 μM (footnote g)
[14] = Table I, pH 7.5, 25° C, [I] 1 to 12 μM

T2 sequence (P00747 581-810 limits assumed): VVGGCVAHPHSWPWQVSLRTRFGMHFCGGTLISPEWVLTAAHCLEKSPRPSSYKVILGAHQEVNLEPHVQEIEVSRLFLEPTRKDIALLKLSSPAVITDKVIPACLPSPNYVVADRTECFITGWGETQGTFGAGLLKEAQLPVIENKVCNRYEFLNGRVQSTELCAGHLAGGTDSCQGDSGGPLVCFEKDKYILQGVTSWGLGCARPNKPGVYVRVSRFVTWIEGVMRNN
T2 sequence (P00747 97-580 partner limits assumed): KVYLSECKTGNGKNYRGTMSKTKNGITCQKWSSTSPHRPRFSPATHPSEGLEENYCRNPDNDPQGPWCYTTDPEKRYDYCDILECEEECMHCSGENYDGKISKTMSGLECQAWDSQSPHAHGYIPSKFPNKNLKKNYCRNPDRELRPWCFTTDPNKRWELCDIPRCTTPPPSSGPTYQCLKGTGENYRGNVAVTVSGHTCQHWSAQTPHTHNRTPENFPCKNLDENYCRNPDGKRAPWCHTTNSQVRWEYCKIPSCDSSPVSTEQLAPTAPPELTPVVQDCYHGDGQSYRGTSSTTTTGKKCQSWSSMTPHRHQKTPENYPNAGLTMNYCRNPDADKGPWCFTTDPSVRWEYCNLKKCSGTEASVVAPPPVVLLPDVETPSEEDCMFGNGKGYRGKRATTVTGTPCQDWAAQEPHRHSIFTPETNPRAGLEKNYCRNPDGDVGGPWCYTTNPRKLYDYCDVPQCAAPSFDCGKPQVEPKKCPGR
T3 sequence (P12544 29-262): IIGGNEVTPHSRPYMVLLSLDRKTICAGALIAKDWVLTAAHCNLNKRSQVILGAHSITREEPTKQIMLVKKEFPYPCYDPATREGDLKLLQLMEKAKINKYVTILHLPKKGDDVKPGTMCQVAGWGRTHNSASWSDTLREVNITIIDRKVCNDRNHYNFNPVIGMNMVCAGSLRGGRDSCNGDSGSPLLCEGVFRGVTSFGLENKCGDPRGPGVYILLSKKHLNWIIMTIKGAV
T6 sequence (P03952 391-638 limits assumed): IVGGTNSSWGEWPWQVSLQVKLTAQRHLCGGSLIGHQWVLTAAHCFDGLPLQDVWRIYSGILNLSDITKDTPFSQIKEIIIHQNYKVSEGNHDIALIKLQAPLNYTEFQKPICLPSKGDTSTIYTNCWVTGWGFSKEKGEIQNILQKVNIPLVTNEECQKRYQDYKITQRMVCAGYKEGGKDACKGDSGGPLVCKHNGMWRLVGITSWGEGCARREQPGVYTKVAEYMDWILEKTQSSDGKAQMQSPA
T6 sequence (P03952 20-390 partner limits assumed): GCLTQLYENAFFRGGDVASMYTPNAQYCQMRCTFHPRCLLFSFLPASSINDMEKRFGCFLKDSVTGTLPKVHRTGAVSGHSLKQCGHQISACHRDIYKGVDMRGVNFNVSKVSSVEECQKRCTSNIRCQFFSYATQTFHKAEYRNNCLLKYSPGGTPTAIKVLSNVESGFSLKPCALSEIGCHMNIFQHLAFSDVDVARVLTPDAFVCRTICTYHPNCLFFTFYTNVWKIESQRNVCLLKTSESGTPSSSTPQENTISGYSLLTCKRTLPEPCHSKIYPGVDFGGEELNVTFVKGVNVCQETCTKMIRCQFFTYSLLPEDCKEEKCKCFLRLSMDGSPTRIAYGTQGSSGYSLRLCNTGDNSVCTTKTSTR
recombinant human tissue plasminogen activator, sequence (P00750 36-562): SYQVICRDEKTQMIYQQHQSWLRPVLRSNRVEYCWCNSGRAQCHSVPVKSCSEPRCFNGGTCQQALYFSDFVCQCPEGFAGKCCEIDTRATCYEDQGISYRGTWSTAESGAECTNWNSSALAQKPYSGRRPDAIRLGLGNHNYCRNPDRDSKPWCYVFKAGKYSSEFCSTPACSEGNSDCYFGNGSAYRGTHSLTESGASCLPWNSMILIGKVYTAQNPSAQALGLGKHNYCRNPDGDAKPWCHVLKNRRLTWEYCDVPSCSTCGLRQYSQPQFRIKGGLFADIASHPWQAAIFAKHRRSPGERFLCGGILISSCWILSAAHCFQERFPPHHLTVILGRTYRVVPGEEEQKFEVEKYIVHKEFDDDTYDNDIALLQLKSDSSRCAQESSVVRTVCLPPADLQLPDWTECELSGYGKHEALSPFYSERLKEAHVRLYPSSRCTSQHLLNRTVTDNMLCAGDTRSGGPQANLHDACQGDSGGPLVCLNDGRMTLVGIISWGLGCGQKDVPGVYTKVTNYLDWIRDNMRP

Compound	kinact/KI [1, 6] [M⁻¹ s⁻¹]	kinact/KI (human factor XIIa; Table I, [I] 3 to 330 μM) [M⁻¹ s⁻¹]	kinact/KI (human plasmin; [7]) [M⁻¹ s⁻¹]	kinact/KI [2] [M⁻¹ s⁻¹]	kinact/KI [3, 8] [M⁻¹ s⁻¹]	kinact/KI (human plasma kallikrein; [10]) [M⁻¹ s⁻¹]	kinact/KI (human plasma kallikrein; [13]) [M⁻¹ s⁻¹]	kinact/KI (bovine trypsin; [14]) [M⁻¹ s⁻¹]	other results
N=C(N)Nc1ccc2c(Cl)c(OCCc3ccccc3)oc(=O)c2c1 [7-guanidino-4-chloro-3-(2-phenylethoxy)isocoumarin]	6780	26000	4140	1880	73	> 270000	–	–	APTT ([4]; [I] 27 μM): 57.3 s; PT ([5]; [I] 27 μM): 13.0 s; kinact/KI (bovine trypsin; [9]): > 110000 M⁻¹ s⁻¹
O=c1oc(Cl)c(Cl)c2ccccc12 [3,4-dichloroisocoumarin, reference compound]	73	–	–	29	–	–	–	–	APTT ([4]; [I] 33 μM): 26.6 s; APTT ([4]; [I] 45 μM): 26.0 s; PT ([5]; [I] 33 μM): 12.4 s
N=C(N)SCCCOc1oc(=O)c2cc(N)ccc2c1Cl [7-amino-4-chloro-3-(3-isothiureidopropoxy)isocoumarin]	5690	6200	4340	1960	130	–	1100	–	kinact/KI [1, 11]: 13000 M⁻¹ s⁻¹; APTT ([4]; [I] 2.9 μM): 100.8 s; APTT ([4]; [I] 29 μM): > 120 s; PT ([5]; [I] 29 μM): 19.4 s; kinact/KI (bovine trypsin; [12]): 410000 M⁻¹ s⁻¹
N=C(N)SCCOc1oc(=O)c2ccccc2c1Cl [3-(2-isothiureidoethoxy)-4-chloroisocoumarin]	–	39000	–	–	220	280000	–	32000	–
COc1oc(=O)c2cc(NC(=N)N)ccc2c1Cl [7-guanidino-4-chloro-3-methoxyisocoumarin]	4420	20000	3500	6620	6400	–	–	–	APTT ([4]; [I] 21 μM): 83.8 s; PT ([5]; [I] 21 μM): 16.5 s; kinact/KI (bovine trypsin; [12]): 310000 M⁻¹ s⁻¹; kinact/KI (human plasma kallikrein; pH 7.5, progress curve method): 240000 M⁻¹ s⁻¹
COc1cc2ccc(NC(=N)N)cc2c(=O)o1 [7-guanidino-3-methoxyisocoumarin]	–	520	320	–	320	–	13000	3300	–
NCCCOc1oc(=O)c2ccccc2c1Cl [3-(3-aminopropoxy)-4-chloroisocoumarin]	94	190	770	–	860	–	1400	7600	–
CCOc1oc(=O)c2cc(NC(=N)N)ccc2c1Cl [7-guanidino-3-ethoxy-4-chloroisocoumarin, 7-guanidino-4-chloro-3-ethoxyisocoumarin]	7720	22000	12300	6180	81000	> 500000	–	–	APTT ([4]; [I] 4.3 μM): 74.8 s; APTT ([4]; [I] 21 μM): > 120 s; APTT ([4]; [I] 53 μM): > 120 s; APTT ([4]; [I] 107 μM): > 120 s; PT ([5]; [I] 21 μM): 22.4 s; PT ([5]; [I] 53 μM): 31.4 s; PT ([5]; [I] 75 μM): 44.2 s; PT ([5]; [I] 107 μM): 80 s; kinact/KI (bovine trypsin; [9]): > 110000 M⁻¹ s⁻¹
N=C(N)SCCCOc1oc(=O)c2ccccc2c1Cl [3-(3-isothiureidopropoxy)-4-chloroisocoumarin]	4690	27000	–	12800	2000	> 110000	–	46000	APTT ([4]; [I] 31 μM): 25.8 s; PT ([5]; [I] 31 μM): 12.3 s
N=C(N)SCCOc1oc(=O)c2cc(NC(=O)Nc3ccccc3)ccc2c1Cl [PhNHCONH-CiTEtOIC, 7-(phenylcarbamoylamino)-4-chloro-3-(2-isothiureidoethoxy)isocoumarin]	–	–	–	–	–	–	–	–	kinact/KI [1, 11]: 16000 M⁻¹ s⁻¹; kinact/KI (human factor XIIa; Table VIII, [I] 3.6-4.9 μM): 50000 M⁻¹ s⁻¹; kinact/KI (human plasmin; Table IX, 0.01M CaCl2, pH 7.5, 25° C, [I] 8.3-41 μM): 32000 M⁻¹ s⁻¹; kinact/KI ([3]; pH 7.5, Table X, biphasic inhibition, read-out: kobs/[I] (biphasic, first value)): 46000 M⁻¹ s⁻¹; kinact/KI ([3]; pH 7.5, Table X, biphasic inhibition, read-out: kobs/[I] (biphasic, second value)): 5730 M⁻¹ s⁻¹; kinact/KI (bovine trypsin; Table VIII, pH 7.5, 25° C, [I] 1.1-4.6 μM): 21000 M⁻¹ s⁻¹
